What was measured:
[1] = refractive index (Na D-line) (dimensionless); xn = mol fraction of the nth substance listed; settings: 101 kPa, Liquid
[2] = xn = mol fraction of the nth substance listed; settings: 101 kPa, Liquid

COc1ccccc1 [anisole] + CCCCCCCC
Settings | mass density, 293.15 K [kg/m3] | mass density, 298.15 K [kg/m3] | mass density, 303.15 K [kg/m3] | refractive index, 293.15 K | refractive index, 298.15 K | refractive index, 303.15 K | viscosity, 293.15 K [mPa·s] | viscosity, 298.15 K [mPa·s] | viscosity, 303.15 K [mPa·s]
[1], x1 = 0.106 | – | – | – | 1.405 | 1.4029 | 1.4004 | – | – | –
[1], x1 = 0.231 | – | – | – | 1.4158 | 1.4136 | 1.4114 | – | – | –
[1], x1 = 0.307 | – | – | – | 1.423 | 1.4208 | 1.4187 | – | – | –
[1], x1 = 0.3991 | – | – | – | 1.4324 | 1.4303 | 1.4283 | – | – | –
[1], x1 = 0.503 | – | – | – | 1.444 | 1.4419 | 1.44 | – | – | –
[1], x1 = 0.6 | – | – | – | 1.4562 | 1.454 | 1.4522 | – | – | –
[1], x1 = 0.69 | – | – | – | 1.4683 | 1.4661 | 1.4643 | – | – | –
[1], x1 = 0.796 | – | – | – | 1.4838 | 1.4815 | 1.4797 | – | – | –
[1], x1 = 0.8822 | – | – | – | 1.4973 | 1.495 | 1.4933 | – | – | –
[1], x1 = 1 | – | – | – | 1.5161 | 1.5141 | 1.5129 | – | – | –
[2], x1 = 0.1031 | 722.82 | 718.75 | 714.63 | – | – | – | 0.5523 | 0.5195 | 0.4917
[2], x1 = 0.2253 | 749.02 | 744.78 | 740.6 | – | – | – | 0.568 | 0.5349 | 0.5042
[2], x1 = 0.3001 | 766.32 | 762.01 | 757.77 | – | – | – | 0.5825 | 0.5446 | 0.5166
[2], x1 = 0.4 | 791.02 | 786.68 | 782.37 | – | – | – | 0.6136 | 0.5719 | 0.5434
[2], x1 = 0.5092 | 820.49 | 816.09 | 811.7 | – | – | – | 0.6541 | 0.6157 | 0.5779
[2], x1 = 0.5998 | 847.08 | 842.65 | 838.17 | – | – | – | 0.7026 | 0.6542 | 0.6162
[2], x1 = 0.6977 | 878.22 | 873.72 | 869.19 | – | – | – | 0.7639 | 0.7153 | 0.6729
[2], x1 = 0.7998 | 913.74 | 909.15 | 904.54 | – | – | – | 0.8456 | 0.7845 | 0.7453
[2], x1 = 0.8975 | 950.96 | 946.32 | 941.63 | – | – | – | 0.9497 | 0.8917 | 0.8289
[2], x1 = 1 | 993.81 | 989.15 | 984.42 | – | – | – | 1.085 | 1.017 | 0.9285

COc1ccccc1 [anisole] + CCCCCCCCC
Settings | mass density, 293.15 K [kg/m3] | mass density, 298.15 K [kg/m3] | mass density, 303.15 K [kg/m3] | refractive index, 293.15 K | refractive index, 298.15 K | refractive index, 303.15 K | viscosity, 293.15 K [mPa·s] | viscosity, 298.15 K [mPa·s] | viscosity, 303.15 K [mPa·s]
[1], x1 = 0.116 | – | – | – | 1.4119 | 1.4103 | 1.4074 | – | – | –
[1], x1 = 0.218 | – | – | – | 1.4191 | 1.4173 | 1.4148 | – | – | –
[1], x1 = 0.32 | – | – | – | 1.4276 | 1.4257 | 1.4234 | – | – | –
[1], x1 = 0.413 | – | – | – | 1.4361 | 1.4343 | 1.432 | – | – | –
[1], x1 = 0.4989 | – | – | – | 1.4448 | 1.443 | 1.4409 | – | – | –
[1], x1 = 0.5907 | – | – | – | 1.4553 | 1.4534 | 1.4515 | – | – | –
[1], x1 = 0.673 | – | – | – | 1.466 | 1.4639 | 1.4619 | – | – | –
[1], x1 = 0.782 | – | – | – | 1.4811 | 1.4789 | 1.4771 | – | – | –
[1], x1 = 0.8965 | – | – | – | 1.4984 | 1.4961 | 1.4944 | – | – | –
[1], x1 = 1 | – | – | – | 1.5161 | 1.5141 | 1.5129 | – | – | –
[2], x1 = 0.1003 | 737.55 | 730.48 | 726.35 | – | – | – | 0.7027 | 0.6663 | 0.6209
[2], x1 = 0.1991 | 752.72 | 748.56 | 744.37 | – | – | – | 0.6975 | 0.6588 | 0.6172
[2], x1 = 0.2995 | 776.9 | 768.71 | 764.41 | – | – | – | 0.7043 | 0.662 | 0.6139
[2], x1 = 0.3997 | 795.17 | 790.9 | 786.51 | – | – | – | 0.7127 | 0.6693 | 0.6315
[2], x1 = 0.4998 | 819.75 | 815.37 | 810.88 | – | – | – | 0.7381 | 0.6982 | 0.6485
[2], x1 = 0.5907 | 844.35 | 839.87 | 835.33 | – | – | – | 0.7718 | 0.7299 | 0.6758
[2], x1 = 0.6975 | 876.64 | 872.08 | 867.39 | – | – | – | 0.8298 | 0.7801 | 0.7158
[2], x1 = 0.8008 | 911.95 | 907.24 | 902.38 | – | – | – | 0.9049 | 0.8452 | 0.7771
[2], x1 = 0.898 | 949.42 | 944.51 | 939.7 | – | – | – | 0.9871 | 0.9159 | 0.8365
[2], x1 = 1 | 993.81 | 989.15 | 984.42 | – | – | – | 1.085 | 1.017 | 0.9285

COc1ccccc1 [anisole] + CCCCCCCCCC
Settings | mass density, 293.15 K [kg/m3] | mass density, 298.15 K [kg/m3] | mass density, 303.15 K [kg/m3] | refractive index, 293.15 K | refractive index, 298.15 K | refractive index, 303.15 K | viscosity, 293.15 K [mPa·s] | viscosity, 298.15 K [mPa·s] | viscosity, 303.15 K [mPa·s]
[1], x1 = 0.1071 | – | – | – | 1.4198 | 1.4165 | 1.4131 | – | – | –
[1], x1 = 0.1979 | – | – | – | 1.425 | 1.4218 | 1.4186 | – | – | –
[1], x1 = 0.31 | – | – | – | 1.4328 | 1.4297 | 1.4269 | – | – | –
[1], x1 = 0.409 | – | – | – | 1.4405 | 1.4374 | 1.4349 | – | – | –
[1], x1 = 0.508 | – | – | – | 1.4495 | 1.4467 | 1.4443 | – | – | –
[1], x1 = 0.6 | – | – | – | 1.4591 | 1.4563 | 1.4541 | – | – | –
[1], x1 = 0.686 | – | – | – | 1.4694 | 1.4667 | 1.4645 | – | – | –
[1], x1 = 0.789 | – | – | – | 1.4831 | 1.4803 | 1.4784 | – | – | –
[1], x1 = 0.887 | – | – | – | 1.4973 | 1.4947 | 1.4927 | – | – | –
[1], x1 = 1 | – | – | – | 1.5161 | 1.5141 | 1.5129 | – | – | –
[2], x1 = 0.0846 | 742.22 | 738.35 | 734.48 | – | – | – | 0.8966 | 0.8362 | 0.7797
[2], x1 = 0.173 | 756.19 | 752.25 | 748.48 | – | – | – | 0.8837 | 0.8195 | 0.7679
[2], x1 = 0.2574 | 770.86 | 766.87 | 763.13 | – | – | – | 0.865 | 0.8019 | 0.7542
[2], x1 = 0.3675 | 792.19 | 788.11 | 784.45 | – | – | – | 0.8512 | 0.7887 | 0.7392
[2], x1 = 0.4546 | 811.1 | 806.89 | 803.36 | – | – | – | 0.8492 | 0.7883 | 0.7322
[2], x1 = 0.5661 | 838.25 | 833.93 | 830.59 | – | – | – | 0.8679 | 0.801 | 0.7387
[2], x1 = 0.6583 | 863.76 | 859.36 | 856.21 | – | – | – | 0.8896 | 0.8198 | 0.7585
[2], x1 = 0.7725 | 900.09 | 895.52 | 892.66 | – | – | – | 0.9343 | 0.8683 | 0.799
[2], x1 = 0.8798 | 940.35 | 935.67 | 933.11 | – | – | – | 0.9984 | 0.9296 | 0.8558
[2], x1 = 1 | 993.81 | 989.15 | 984.42 | – | – | – | 1.085 | 1.017 | 0.9285
